Patent US10316050B2, “PT (IV) complexes containing 4,4′-disubstituted-2,2′-bipyridyl and their use in cancer therapy” (THE BOARD OF REGENTS OF THE NEVADA SYSTEM OF HIGHER …, priority 2014, dated 2019)
Where two headings read alike, the source gives them in different places.

Legend:
[1] = tested on: T-47D breast cancer cells; assay: MTS cell viability assay, T-47D; type: cell-based, human
Procedure: (§1) Human breast (HCC38, MCF-7, MDA-MB-231, SK-BR-3, T-47D, and ZR-75-1), lung (A549 and H520), and prostate (DU145 and PC-3) cancer cell lines were obtained from American Culture Type Collection (ATCC). The HCC38, MCF-7, MDA-MB-231, SK-BR-3, T-47D, ZR-75-1, and A549 cells were grown in MEM supplemented with 10% FBS, 25 mM HEPES buffer (pH 7.4), penicillin (100 U/mL), and streptomycin (100 μg/mL). The H520, DU145, and PC-3 cell lines were grown in RPMI-1640 supplemented with 10% FBS, 25 mM HEPES buffer (pH 7.4), penicillin (100 U/mL), and streptomycin (100 μg/mL). All cell lines were maintained at 37° C. in a humidified, 5% CO2 atmosphere.
(§2) Cells were cultured at a density of 2-3.5×10^3 cells per well in flat bottomed 96-well plates in 100 μL of complete growth medium and incubated for 2 days to reach ˜50% confluence. The cells were then treated with solvent or the appropriate drugs (CDDP stock was dissolved in 0.15 M NaCl, carboplatin stock was dissolved in 5% glucose, synthesized Pt(IV) complexes were dissolved in DMSO) for 1 hour, washed three times with 100 μL PBS, and incubated in 100 μL of fresh medium. After 2 days, the medium was replaced with 120 μL of medium containing CellTiter 96® Aqueous One Solution Reagent (MTS reagent) (Promega, Madison, Wis.). The cells were incubated at 37° C. for 4 hours and the cell viability was determined by measuring the absorbance at 490 nm using a Tecan Infinite M1000 microplate reader. The 48 h treatment was done in a similar manner, except the cells were not washed after treatment and the MTS reagent was immediately added. Viability of treated groups was calculated as a percent of control and graphed with GraphPad Prism.
(§3) The anti-proliferative activities of Pt(IV) complexes were determined in two lung (A549 and H520), two prostate (DU145 and PC-3), and six breast (HCC38, MCF-7, MDA-MB-231, SK-BR-3, T-47D, and ZR-75-1) cancer cell lines. The cells were treated with increasing concentrations of cisplatin (CDDP), carboplatin, or the Pt(IV) complexes for 1 or 48 hours, and the viability was measured using an MTS colorimetric cell proliferation assay. Graphs of the results are shown for DU145 (FIG. 8A), PC-3 (FIG. 8B), SK-BR-3 (FIG. 8C), ZR-75-1 (FIG. 8D), A549 (FIG. 8E), and MCF-7 (FIG. 8F).

[2] = tested on: PC-3 prostate cancer cells; assay: MTS cell viability assay, PC-3; type: cell-based, human; conditions: read-out: EC50 (effective concentration that resulted in 50% cell viability)
Procedure: as §1, §2, §3
(§4) The anti-proliferative activities of certain Pt(II) complexes were determined in DU145, PC-3, and SK-BR-3 cells. The cells were treated with increasing concentrations of cisplatin (CDDP) or the Pt(II) complexes for 1 or 48 hours, and the viability was measured using an MTS colorimetric cell proliferation assay.

[3] = tested on: DU145 prostate cancer cells; type: cell-based, human; conditions: read-out: EC50 (effective concentration that resulted in 50% cell viability)
Procedure: as §1, §2, §3, §4

[4] = tested on: A549 lung cancer cells; assay: MTS cell viability assay, A549; type: cell-based, human; conditions: read-out: EC50 (effective concentration that resulted in 50% cell viability)
Procedure: as §1, §2, §3

[5] = tested on: HCC38 breast cancer cells; assay: MTS cell viability assay, HCC38; type: cell-based, human; conditions: read-out: EC50 (effective concentration that resulted in 50% cell viability)
Procedure: as §1, §2, §3

[6] = tested on: MDA-MB-231 breast cancer cells; assay: MTS cell viability assay, MDA-MB-231; type: cell-based, human; conditions: read-out: EC50 (effective concentration that resulted in 50% cell viability)
Procedure: as §1, §2, §3

[7] = tested on: H520 lung cancer cells; assay: MTS cell viability assay, H520; type: cell-based, human; conditions: read-out: EC50 (effective concentration that resulted in 50% cell viability)
Procedure: as §1, §2, §3

[8] = tested on: MCF-7 breast cancer cells; assay: MTS cell viability assay, MCF-7; type: cell-based, human; conditions: read-out: EC50 (effective concentration that resulted in 50% cell viability)
Procedure: as §1, §2, §3

[9] = tested on: ZR-75-1 breast cancer cells; assay: MTS cell viability assay, ZR-75-1; type: cell-based, human; conditions: read-out: EC50 (effective concentration that resulted in 50% cell viability)
Procedure: as §1, §2, §3

[10] = tested on: SK-BR-3 breast cancer cells; assay: MTS cell viability assay, SK-BR-3; type: cell-based, human; conditions: read-out: EC50 (effective concentration that resulted in 50% cell viability)
Procedure: as §1, §2, §3, §4

[11] = Stability of stock solution in DMSO or ethanol; type: physicochemical; conditions: stock solution made in DMSO or ethanol
Procedure: (§5) It should be noted that while the solubility of the Pt(IV) complexes in organic solvents were increased compared to their Pt(II) precursors, they were still poorly soluble in water. Thus, Pt(IV)-1C to Pt(IV)-3C were limited to a highest concentration of 100 μM. […] Testing of Pt(IV)4C therefore was limited to 25 μM.

[12] = Solubility in DMSO and common organic solvents; type: physicochemical
Procedure: Coordination of the axial ligands to the Pt center improved the solubility of the complexes in common organic solvents. DMSO solutions of the Pt(IV) complexes with concentrations of 10 mM or higher were obtainable, whereas the Pt(II) can only be made at the highest concentration of 5 mM.

[13] = Maximum tolerated dose study in a mouse model; type: in vivo; conditions: intraperitoneal administration, 12.5 mg/kg/day for three days
Procedure: As described herein, the platinum complexes provided herein can be used to reduce the viability of cancer cells. […] One of these compounds, Pt(II)-4C, was tested in vivo in a mouse model to determine the maximum tolerated dose. […] Here, a series of Pt(IV) derivatives having improved solubility in DMSO and, in some instances, increased activity compared to their Pt(II) counterparts is described.

[14] = Solubility in water and culture medium; type: physicochemical; conditions: water
Procedure: as §5

[Pt(IV)Cl2(OAc)2(4,4′-dioctyloxy-2,2′-bipyridine)] [Pt(IV)-8C]
EC50 ([1]; 1 h treatment, Table 3, read-out: EC50 (effective concentration that resulted in 50% cell viability)): 1.5 ± 0.5 µM
EC50 ([1]; 48 h, Table 5, read-out: EC50 (effective concentration that resulted in 50% cell viability)): 0.25 µM
EC50 ([2]; PC-3, 1 h treatment, Table 3): 1.2 ± 0.5 µM
EC50 ([2]; PC-3, 48 h, Table 5): 0.11 ± 0.02 µM
EC50 ([3]; DU145, 1 h treatment, Table 3): 0.7 ± 0.3 µM
EC50 ([3]; DU145, 48 h, Table 5): 0.2 ± 0.1 µM
EC50 ([4]; A549, 1 h treatment, Table 3): 7 ± 0.4 µM
EC50 ([4]; A549, 48 h, Table 5): 3 ± 0.5 µM
EC50 ([5]; HCC38, 1 h treatment, Table 3): 3 ± 0.6 µM
EC50 ([5]; HCC38, 48 h, Table 5): 1.6 ± 0.3 µM
EC50 ([6]; MDA-MB-231, 1 h treatment, Table 3): 2.1 ± 0.2 µM
EC50 ([6]; MDA-MB-231, 48 h, Table 5): 0.9 ± 0.3 µM
EC50 ([7]; H520, 1 h treatment, Table 3): 7 ± 5 µM
EC50 ([7]; H520, 48 h, Table 5): 1.2 ± 0.6 µM
EC50 ([8]; MCF-7, 1 h treatment, Table 3): 4 ± 1 µM
EC50 ([8]; MCF-7, 48 h, Table 5): 1.3 ± 0.3 µM
EC50 ([9]; ZR-75-1, 1 h treatment, Table 3): 3 ± 1 µM
EC50 ([9]; ZR-75-1, 48 h, Table 5): 1.3 ± 0.1 µM
EC50 ([10]; SK-BR-3, 1 h treatment, Table 3): 0.33 ± 0.05 µM
EC50 ([10]; SK-BR-3, 48 h, Table 5): 0.22 ± 0.03 µM
stability of the structure in stock solution [11]: structure is stable

CCCCCCCCOc1ccnc(-c2cc(OCCCCCCCC)ccn2)c1.[Cl][Pt][Cl] [Pt(II)-8C]
solubility in DMSO and other common organic solvents (in words) [12]: poor solubility in DMSO

CCCCOc1ccnc(-c2cc(OCCCC)ccn2)c1.[Cl][Pt][Cl] [Pt(II)-4C]
EC50 ([1]; 1 h treatment, Table 2, read-out: EC50 (effective concentration that resulted in 50% cell viability)): 12 ± 7 µM
EC50 ([1]; 48 h treatment, Table 4, read-out: EC50 (effective concentration that resulted in 50% cell viability)): 2.3 ± 0.4 µM
EC50 ([2]; PC-3, 1 h treatment, Table 2): 11 ± 2 µM
EC50 ([2]; PC-3, 48 h treatment, Table 4): 7.4 ± 0.5 µM
solubility in DMSO and other common organic solvents (in words) [12]: only moderate solubility in common organic solvents
EC50 ([3]; DU145, 1 h treatment, Table 2): 12 ± 8 µM
EC50 ([3]; DU145, 48 h treatment, Table 4): 5 ± 2 µM
survival of the animals [13]: survived for seven days
EC50 ([4]; A549, 1 h treatment, Table 2): 17 ± 1 µM
EC50 ([4]; A549, 48 h treatment, Table 4): 15.4 ± 0.5 µM
EC50 ([5]; HCC38, 1 h treatment, Table 2): 12 ± 6 µM
EC50 ([5]; HCC38, 48 h treatment, Table 4): 7.3 ± 3 µM
EC50 ([6]; MDA-MB-231, 1 h treatment, Table 2): 4 ± 3 µM
EC50 ([6]; MDA-MB-231, 48 h treatment, Table 4): 2.4 ± 0.6 µM
EC50 ([7]; H520, 1 h treatment, Table 2): 20 ± 1 µM
EC50 ([7]; H520, 48 h treatment, Table 4): 14 ± 6 µM
solubility in water (in words) [14]: poor solubility in water
EC50 ([8]; MCF-7, 1 h treatment, Table 2): 22 ± 2 µM
EC50 ([8]; MCF-7, 48 h treatment, Table 4): 13 ± 1 µM
EC50 ([9]; ZR-75-1, 1 h treatment, Table 2): 21 ± 2 µM
EC50 ([9]; ZR-75-1, 48 h treatment, Table 4): 6 ± 0.9 µM
EC50 ([10]; SK-BR-3, 1 h treatment, Table 2): 5 ± 4 µM
EC50 ([10]; SK-BR-3, 48 h treatment, Table 4): 2.1 ± 0.2 µM
